Source: article PMC8740768 (Proceedings of the National Academy of Sciences of the …, 2021)
Entries after “also recorded” stand apart in the source; their conditions may differ. Read-outs that look alike come from different tables or passages of the source.

B1: protease-associated domain of vacuolar sorting receptor isoform 1 (VSR1-PA) (domain or fragment, Arabidopsis thaliana, UniProt P93026 20-182, looked up)
chain: RFVVEKNNLKVTSPDSIKGIYECAIGNFGVPQYGGTLVGTVVYPKSNQKACKSYSDFDISFKSKPGRLPTFVLIDRGDCYFTLKAWIAQQAGAAAILVADSKAEPLITMDTPEEDKSDADYLQNITIPSALITKTLGDSIKSALSGGDMVNMKLDWTESVPHP
B2: C-terminal peptide of CRU1 (YRVAAA) (peptide)
peptide: YRVAAA

Key:
[1] = tested on: soybean seeds; conditions: cited from earlier work
[2] = tested on: PSV; conditions: C terminus of phaseolin; cited from earlier work
[3] = tested on: phaseolin; conditions: cited from earlier work
[4] = tested on: VSR1-NT; assay: Competitive peptide pull-down: elution of aleurain-ssVSD-bound VSR1-NT; set-up: species or system Arabidopsis thaliana; conditions: 2 mM peptide in VSR binding buffer, 4C, 4 hours; T7 immunoblot
[5] = tested on: VSR1-NT; assay: Competitive peptide pull-down: elution of Cru1-ctVSD-bound VSR1-NT; set-up: species or system Arabidopsis thaliana; conditions: 2 mM peptide in VSR binding buffer, 4C, 4 hours, T7 immunoblot
[6] = tested on: VSR1; conditions: cited from earlier work
[7] = tested on: VSR1-PA-R95M; assay: Thermal shift assay; format: binding, Arabidopsis thaliana; conditions: 5 mM peptide, 50 μM VSR1-PA-R95M, pH 7.1; n = 3; ns P > 0.05
[8] = tested on: VSR1-PA; conditions: cited from earlier work
[9] = molecular target: B2; assay: thermal shift assay
[10] = molecular target: B1; assay: differential scanning fluorimetry, isothermal analysis
[11] = molecular target: B1; assay: as above; remark: listed apart in the source
[12] = molecular target: B1; assay: crystal structure

Molecule: 612PLSSILRAFY621
- Targeting of GFP to the PSV [1]: sufficient to target GFP to the PSV in soybean seeds

Molecule: AFVY
- Targeting of seed proteins to the PSV [2]: essential for targeting seed proteins to the PSV
- Effect of removing the C-terminal residues on phaseolin [3]: abolished aggregation of phaseolin and missorted it to the extracellular space

Molecule: SYGRPRVAAA [Cru1]
- Elution of aleurain-ssVSD-bound VSR1-NT [4]: eluted
- Elution of Cru1-ctVSD-bound VSR1-NT ([5]; listed as Cru1-ctVSD): only eluted by ctVSD of CRU1
- Binding to VSR1 ([6]; earlier studies): VSR1 could bind to the C-terminal peptide of CRU1; also recorded: VSR1 can bind to the C-terminal sequence
- Calcium dependence of binding to VSR1 ([6]; pull-down assay): calcium-dependent

Molecule: YRVAAA
- Change in Tm of VSR1-PA-R95M (in words) [7]: no significant change in the Tm of VSR1-PA-R95M

Molecule: SYGRPRVAAAP [Cru1+P]
- Elution of aleurain-ssVSD-bound VSR1-NT [4]: not eluted
- Elution of Cru1-ctVSD-bound VSR1-NT [5]: not by aleurain-ssVSD and Cru1+P

Molecule: ADSNPIRPVT [aleurain-ssVSD, reference compound]
- Elution of aleurain-ssVSD-bound VSR1-NT [4]: eluted
- Elution of Cru1-ctVSD-bound VSR1-NT [5]: not by aleurain-ssVSD
- Interaction of VSR1-PA with ssVSD [8]: VSR1-PA binds to the residues (ADS) preceding the NPIR motif

Molecule: B1
- increase of Tm [9]: 5.3 °C

Molecule: B2
- Kd [10]: 9600 µM
- Kd [11]: 2600 µM

Molecule: RVAAA [C-terminal pentapeptide (468RVAAA472) of CRU1]
- binding result [12]: binds

Molecule: YSDRFV [YSDRFV peptide derived from the ctVSD of VL22]
- Kd [10]: 3200 µM
- Kd [11]: 1000 µM
